Laboratory results from patent EP0450065A1, “ANTIVIRAL AGENT” (priority 1988, dated 1990).
Read-outs that look alike come from different tables or passages of the source.

Assays:
[1] = test system: herpes simplex virus type 1 (HF strain); assay: Control of CPE (cytopathic effect) manifestation in vero cells; type: cell-based; parameters: key to Cytopathic effect [CPE] (3days) Average / Cytopathic effect [CPE] (5days) Average / Cytopathic effect [CPE] (6days) Average: CPE score: 0 none, 0.5 minute spots, 1 = 25%, 2 = 50%, 3 = ≥75% cells; key to Cytopathic effect [CPE] (3days) △CPE / Cytopathic effect [CPE] (5days) △CPE / Cytopathic effect [CPE] (3days) ΔCPE / Cytopathic effect [CPE] (6days) ΔCPE: ΔCPE = difference of average CPE score (0–3 scale) from control; conditions: 20 μg/ml, HSV-1 (HF strain), Example 5
Method: (§1) In vitro antiviral activity of Compound A against herpes simplex virus type 1 (HF strain) Compound A was tested for antiviral effect by the following two methods.
(§2) Vero cells cultured and grown in a monolayer on microplates to test for cytopathic effect due to viral infection, with solutions of Compound A diluted to varying ratios and solutions of virus diluted to varying ratios added severally thereto in a volume of 0.1 ml, were cultured under the conditions of 5% CO₂ and 37°C and were examined for CPE manifestation under a microscope. The observation was continued for five to six days.
(§3) The degree of CPE brought about by viral infection was rated on the five-point scale, wherein 3 stands for CPE observed on not less than 75% of cultured cells, 2 for CPE observed on 50% of cultured cells, 1 for CPE observed on 25% of cultured cells, 0.5 for occurrence of one to two extremely minute DPE spots, and 0 for perfect absence of recognizable CPE. The CPE scores obtained at the four holes in each microplate were averaged and the difference of the average from the average obtained in the control (omitting the treatment with a chemical) was reported as ΔCPE.
(§4) In vitro antiviral effect of Compound A against herpes simplex virus type 1 (HF strain) The test was carried out by following the procedure of Example 3.

[2] = test system: herpes simplex virus type 1 (HF strain); assay: 50% Tissue culture infective dose (TCID50), Read-Munch method, negative logarithm of virus dilution; type: cell-based
Method: as §1
(§5) The amount of virus infecting 50% of tissues (TCID₅₀) was determined by the Read-Munch method and expressed in negative logarithm of the maximum radio of dilution of virus. The difference of the amount thus determined from the amount found in the control (omitting the treatment with a chemical) was reported as ΔTCID₅₀. A sample whose ΔCPE's found on the last day of observation and on each of the days spent for the observation exceeded 1.0 was evaluated as effective.
as §4

[3] = test system: herpes simplex virus type 2 (169 strain); assay: Control of CPE (cytopathic effect) manifestation in vero cells; type: cell-based; parameters: key to Cytopathic effect [CPE] (3days) Average / Cytopathic effect [CPE] (5days) Average / Cytopathic effect [CPE] (6days) Average: CPE score 0-3: 3 = ≥75% cells, 2 = 50%, 1 = 25%, 0 = none; key to Cytopathic effect [CPE] (3days) △CPE / Cytopathic effect [CPE] (5days) △CPE / Cytopathic effect [CPE] (6days) △CPE: difference of mean CPE score (0-3 scale) from untreated control; conditions: 20 μg/ml, HSV-2 (169), Example 6
Method: as §2, §3
(§6) In vitro antiviral activity of Compound A against herpes simplex virus type 2 (169 strain) The test was carried out by following the procedure of Example 3.

[4] = test system: herpes simplex virus type 2 (169 strain); assay: 50% Tissue culture infective dose (TCID50), Read-Munch method, negative logarithm of virus dilution; type: cell-based; parameters: key to Cytopathic effect [CPE] (5days) TCID50 / Cytopathic effect [CPE] (3days) TCID50 / Cytopathic effect [CPE] (6days) TCID50: negative log of maximum virus dilution infecting 50% of tissues; conditions: 20 μg/ml, HSV-2 (169), Example 6
Method: as §5, §6

[5] = test system: herpes simplex virus type 1 (KOS strain); assay: Control of CPE (cytopathic effect) manifestation in vero cells; type: cell-based; conditions: HSV-1 (KOS), Example 7; for Cytopathic effect [CPE] (3days) △CPE / Cytopathic effect [CPE] (5days) △CPE: difference from control
Method: as §2, §3
(§7) Antiviral activity of Compound A and Compound B against herpes simplex virus type 1 (KOS strain) The test was carried out by following the procedure of Example 3.

[6] = test system: herpes simplex virus type 1 (KOS strain); assay: 50% Tissue culture infective dose (TCID50), Read-Munch method, negative logarithm of virus dilution; type: cell-based; parameters: key to Cytopathic effect [CPE] (5days) TCID50 / Cytopathic effect [CPE] (3days) TCID50: TCID50 as negative log of maximum virus dilution ratio; key to Cytopathic effect [CPE] (5days) △TCID50 / Cytopathic effect [CPE] (3days) △TCID50: difference from control TCID50, in negative log of virus dilution; conditions: HSV-1 (KOS), Example 7; for log reduction at 30 µg/mL / Cytopathic effect [CPE] (3days) △TCID50 / Cytopathic effect [CPE] (5days) △TCID50: difference from control
Method: as §5, §7

[7] = test system: herpes simplex virus type 1 (KOS strain); assay: One-step growth of virus, plaque assay with vero cells; type: cell-based; conditions: for Intracellular virus Average / inhibition at 30 µg/mL / log reduction at 30 µg/mL / Intracellular virus Control ratio % / Intracellular virus Control ratio -logT/C: 24 hours; for inhibition at 30 µg/mL / log reduction at 30 µg/mL: Human alphaherpesvirus 1, Vero, 24 h; for inhibition at 30 µg/mL: read-out: Intracellular virus Control ratio %; for log reduction at 30 µg/mL: read-out: Intracellular virus Control ratio -logT/C
Method: Antiviral activity of Compound A and Compound B against one-step growth of herpes simplex virus type 1 (KOS strain) Cells grown in a monolayer, with a sample of a given compound diluted in a varying ratio added, were pretreated for 15 minutes. Then, the pretreated cells were infected with the herpes simplex virus type 1 (KOS strain) at an infecting ratio of 0.25 and left standing for 24 hours. At the end of the standing, the intracellular and extracellular amounts of virus were determined by the plaque assay with vero cells.

[8] = test system: vero cells; conditions: african green monkey
Method: Compound A and Compound B were severally dissolved in distilled water in a concentration of 5 mg/ml, to prepare master solutions. Each of the master solutions was suitably diluted with an Eagle's MEM culture medium containing 10% fetal bovine serum. A 0.2-ml portion of the resultant dilution product was placed on vero cells cultured in advance on a microplate and grown in a monolayer, cultured further thereon at 37°C for three to five days. Samples taken severally after three days'and five days'culture were placed under a microscope and tested for cytopathogenic effect brought about by a chemical agent.

[9] = test system: vero cells; conditions: control ratio on propagation of vero cells, 72hr
Method: Samples of the control group contained 0.1 ml of a culture solution (an Eagle's MEM culture medium containing 10% fetal bovine serum).
The test was conducted by using three culture tubes per group, culturing the cells in the tubes at 37°C for three days, and taking count of live cells by the dye-exclusion method.

[10] = 20 μg/ml, HSV-1 (HF strain), Example 5

O=c1[nH]c(=O)n([C@H]2C[C@H](O)[C@@H](CO)O2)cc1I [IDU, reference compound]
Cytopathic effect [CPE] (3days) Average [1]: 2.25 | Cytopathic effect [CPE] (6days) Average [1]: 3.0 | Cytopathic effect [CPE] (3days) ΔCPE ([1]; difference from control): 0.5 | Cytopathic effect [CPE] (6days) ΔCPE ([1]; difference from control): 0 | Cytopathic effect [CPE] (3days) TCID50 [2, 10]: 6.3 | Cytopathic effect [CPE] (6days) TCID50 [2, 10]: 6.5 | log reduction at 20 µg/mL ([2]; Human alphaherpesvirus 1, 72 h, read-out: Cytopathic effect [CPE] (3days) ΔTCID50): 0 | log reduction at 20 µg/mL ([2]; Human alphaherpesvirus 1, 144 h, read-out: Cytopathic effect [CPE] (6days) ΔTCID50): -0.2 | Cytopathic effect [CPE] (3days) Average [3]: 0.75 | Cytopathic effect [CPE] (6days) Average [3]: 1.25 | Cytopathic effect [CPE] (3days) △CPE ([3]; difference from control): 1.75 | Cytopathic effect [CPE] (6days) △CPE ([3]; difference from control): 1.75 | Cytopathic effect [CPE] (3days) TCID50 [4]: 5.3 | Cytopathic effect [CPE] (6days) TCID50 [4]: 5.5 | log reduction at 20 µg/mL ([4]; Human alphaherpesvirus 2, 72 h, difference from control, read-out: Cytopathic effect [CPE] (3days) △TCID50): 1.4 | Cytopathic effect [CPE] (3days) Average ([5]; 30 μg/ml): 1.0 | Cytopathic effect [CPE] (5days) Average ([5]; 30 μg/ml): 2.0 | Cytopathic effect [CPE] (3days) △CPE ([5]; 30 μg/ml): 1.0 | Cytopathic effect [CPE] (5days) △CPE ([5]; 30 μg/ml): 1.0 | Cytopathic effect [CPE] (3days) TCID50 ([6]; 30 μg/ml): 5.3 | Cytopathic effect [CPE] (5days) TCID50 ([6]; 30 μg/ml): 6.0 | log reduction at 30 µg/mL ([6]; Human alphaherpesvirus 1, 72 h, 30 μg/ml, read-out: Cytopathic effect [CPE] (3days) △TCID50): 0.2 | log reduction at 30 µg/mL ([6]; Human alphaherpesvirus 1, 120 h, 30 μg/ml, read-out: Cytopathic effect [CPE] (5days) △TCID50): 0.3 | Intracellular virus Average ([7]; 30 μg/ml, extracellular virus): 7.50×10^3 /dish | Intracellular virus Average ([7]; 30 μg/ml): 1.00×10^6 /dish | inhibition at 30 µg/mL ([7]; 30 μg/ml, extracellular virus): > 99.9% | log reduction at 30 µg/mL ([7]; 30 μg/ml, extracellular virus): 3.6 | inhibition at 30 µg/mL ([7]; 30 μg/ml): 99.8% | log reduction at 30 µg/mL ([7]; 30 μg/ml): 2.61

K₇PW₁₀Ti₂O₄₀.6H₂O [Compound B]
Cytopathic effect [CPE] (3days) Average ([5]; 100 μg/ml): 0 | Cytopathic effect [CPE] (5days) Average ([5]; 100 μg/ml): 0 | Cytopathic effect [CPE] (3days) △CPE ([5]; 100 μg/ml): 2.0 | Cytopathic effect [CPE] (5days) △CPE ([5]; 100 μg/ml): 3.0 | Cytopathic effect [CPE] (3days) Average ([5]; 200 μg/ml): 0 | Cytopathic effect [CPE] (5days) Average ([5]; 200 μg/ml): 0 | Cytopathic effect [CPE] (3days) △CPE ([5]; 200 μg/ml): 2.0 | Cytopathic effect [CPE] (5days) △CPE ([5]; 200 μg/ml): 3.0 | Cytopathic effect [CPE] (3days) TCID50 ([6]; 100 μg/ml): 3.5 | Cytopathic effect [CPE] (5days) TCID50 ([6]; 100 μg/ml): 3.5 | Cytopathic effect [CPE] (3days) △TCID50 ([6]; 100 μg/ml): 2.0 | Cytopathic effect [CPE] (5days) △TCID50 ([6]; 100 μg/ml): 2.5 | Cytopathic effect [CPE] (3days) TCID50 ([6]; 200 μg/ml): 3.5 | Cytopathic effect [CPE] (5days) TCID50 ([6]; 200 μg/ml): 3.5 | Cytopathic effect [CPE] (3days) △TCID50 ([6]; 200 μg/ml): 2.0 | Cytopathic effect [CPE] (5days) △TCID50 ([6]; 200 μg/ml): 2.5 | Intracellular virus Average ([7]; 50 μg/ml, extracellular virus): 5.83×10^5 /dish | Intracellular virus Control ratio % ([7]; 50 μg/ml, extracellular virus): 98.1% | Intracellular virus Control ratio -logT/C ([7]; 50 μg/ml, extracellular virus): 1.711 | Intracellular virus Average ([7]; 50 μg/ml): 6.00×10^5 /dish | Intracellular virus Control ratio % ([7]; 50 μg/ml): 99.8% | Intracellular virus Control ratio -logT/C ([7]; 50 μg/ml): 2.831 | Intracellular virus Average ([7]; 100 μg/ml, extracellular virus): 2.10×10^5 /dish | Intracellular virus Control ratio % ([7]; 100 μg/ml, extracellular virus): 99.3% | Intracellular virus Control ratio -logT/C ([7]; 100 μg/ml, extracellular virus): 2.155 | Intracellular virus Average ([7]; 100 μg/ml): 1.12×10^5 /dish | Intracellular virus Control ratio -logT/C ([7]; 100 μg/ml): 3.560 | Intracellular virus Control ratio % ([7]; 100 μg/ml, 1440 min): >99.9% | Intracellular virus Average ([7]; 200 μg/ml, extracellular virus): 4.95×10^4 /dish | Intracellular virus Control ratio % ([7]; 200 μg/ml, extracellular virus): 99.8% | Intracellular virus Control ratio -logT/C ([7]; 200 μg/ml, extracellular virus): 2.783 | Intracellular virus Average ([7]; 200 μg/ml): 1.07×10^3 /dish | Intracellular virus Control ratio -logT/C ([7]; 200 μg/ml): 5.580 | Intracellular virus Control ratio % ([7]; 200 μg/ml, 1440 min): >99.9% | control of the intracellular and extracellular viruses in the one-step growth ([7]; concentration not given, 1440 min): not less than 99.9% | maximum nontoxic doses (MNTD) [8]: > 200 µg/mL | Cellular toxity (3 days) Maximum nontoxic does ([8]; 72 h): >200 µg/mL | Cellular toxity (5 days) Maximum nontoxic does ([8]; 120 h): >200 µg/mL | Ratio (%) ([9]; 100 μg/ml): absolutely no effect | Ratio (%) ([9]; 200 μg/ml): absolutely no effect
